Molecules are shown by their SMILES.

The subject of assay [1] is MDM2 in WD/DDLS tumor biopsies. The assay can be described thus: MDM2 in pre- and post-treatment patient biopsies by immunoblot. The class given is in vivo, human. As to the method:
FIG. 7. […] GAPDH serves as a loading control.
Antibodies against CDK4 (3F121), MDM2 (N-20 and SMP14), total RB (IF8), Cyclin A (H432), p16 (C20), p53 (DO-1 and Bp53-12), tubulin (C20) and FLAG (M2) were obtained from Santa Cruz Biotechnology, phospho-Rb 780 (#9307) from Cell Signalling, and ARF (3642) from Abeam, HAUSP (A300-033A) from Bethyl Laboratories. Treated cells were lysed with buffer composed of 50 mM Tris-HCl, pH7.4, 250 mM NaCl, 5 mM EDTA, 0.5% NP40, 2 mM PMSF, and supplemented with protease inhibitors. Eighty micrograms of protein were resolved by SDS-PAGE and transferred to PVDF membranes. Membranes were incubated overnight with antibodies (1:1000). […] Pre-treatment biopsies were collected within two weeks of the first dose and post-treatment biopsies collected after at last three weeks of treatment. […] Tumor response was assessed by reference radiologist by CT scan every six weeks for 36 weeks, and every 12 weeks thereafter.
Extracts were prepared in 50 mM Tris-HCl, pH7.4, 150 mM NaCl, 1 mM EDTA, 1% NP40, 0.25% sodium deoxycholate and supplemented with mini-protease inhibitor cocktail (Roche). Tumor response was assessed by reference radiologist by CT scan every six weeks for 36 weeks, and every 12 weeks thereafter.
(In general: Immunoblotting shows a protein as a band on a membrane.)

Assay [2] relates to MDM2 in LS7785-1 and LS7785-10 cells. As to the kind of experiment: MDM2 turnover (cycloheximide chase), non-responder cells. To be noted: non-responder cells LS7785-1 and LS7785-10; 1 μM for 48 hrs, then cycloheximide. The class given is cell-based, human. As to the method: The level of MDM2 was measured by immunoblot (center). Tubulin was a loading control. […] This experiment was repeated at least three times on different biologic replicates. […] Tubulin is a loading control. Data compiled from at least three independent experiments is plotted (mean and standard deviation) and a representative immunoblot is shown. […] The graphs are compiled from the data obtained in three independent biologic replicates and representative autoradiographs are shown.

The test system of assay [3] is DBTRG-05MG glioma cells. The assay can be described thus: PD-induced growth arrest (BrdU incorporation). Conditions: BrdU incorporation 7 days after treatment. In kind it is cell-based. As to the method:
(§1) Cell lines were maintained in DMEM High glucose (HG) supplemented with 10% heat-inactivated fetal bovine serum. Glioma cell lines, DKMG, SNB19, DBTRG-05MG, and […], were maintained in DMEM HG supplemented with 10% fetal bovine serum and 2 mM glutamine. The MCF7 breast cancer cell line was maintained in RPMI-1640 media supplemented with 10% fetal bovine serum and 2 mM glutamine.
(§2) shRNA were delivered in the pLKO.1 vector (Sigma) and infected cells selected using puromycin (1 μg/ml); infection with a virus carrying a scramble control ([…]) was used as a control in all experiments utilizing shRNA. Cell lines were treated with […] or shRNA directed against CDK4 ([…] (SEQ ID NO:4)), MDM2 (M376, […] (SEQ ID NO:5); M380, […] (SEQ ID NO:6)), HAUSP (4057, […] (SEQ ID NO:7); 845, […] (SEQ ID NO:8)) or CDK6 ([…] (SEQ ID NO:9)) for 48 hours to 7 days and stained with BrdU (20 μM for two hours) or annexin V as previously described (22, 48). […] was determined by staining with propidium iodine and FACS analyses (49).
(§3) Cells were stained with BrdU (20 μM for two hours) or annexin V as previously described (22, 48). […] was determined by staining with propidium iodine and FACS analyses (49).
For orientation: Incorporation of labelled thymidine or its analogues reports DNA synthesis.

In assay [4] the test system is DKMG glioma cells. As to the kind of experiment: PD-induced growth arrest (BrdU incorporation). In kind it is cell-based. Conditions: BrdU incorporation 7 days after treatment. As to the method:
as §1, §2, §3

Assay [5] concerns MCF7 breast cancer cells. As to the kind of experiment: PD-induced growth arrest (BrdU incorporation). In kind it is cell-based. Conditions: BrdU incorporation 7 days after treatment. As to the method: as §1, §2, §3
The test system of assay [6] is SNB19 glioma cells. The assay can be described thus: PD-induced growth arrest (BrdU incorporation). In kind it is cell-based. To be noted: BrdU incorporation 7 days after treatment. As to the method: as §1, §2, §3
Assay [7] has as its system T98G glioma cells. As to the kind of experiment: PD-induced growth arrest (BrdU incorporation). In kind it is cell-based. Conditions: BrdU incorporation 7 days after treatment. As to the method: as §1, §2, §3
In assay [8] the test system is MDM2 in LS8817 and LS0082 cells. As to the kind of experiment: MDM2 levels by immunoblot, responder cells. In kind it is cell-based, human. To be noted: two days. As to the method:
(A) Immunoblot. […] Tubulin was a loading control. (B) Immunoblot.
Antibodies against CDK4 (3F121), MDM2 (N-20 and SMP14), total RB (IF8), Cyclin A (H432), p16 (C20), p53 (DO-1 and Bp53-12), tubulin (C20) and FLAG (M2) were obtained from Santa Cruz Biotechnology, phospho-Rb 780 (#9307) from Cell Signalling, and ARF (3642) from Abeam, HAUSP (A300-033A) from Bethyl Laboratories. Treated cells were lysed with buffer composed of 50 mM Tris-HCl, pH7.4, 250 mM NaCl, 5 mM EDTA, 0.5% NP40, 2 mM PMSF, and supplemented with protease inhibitors. Eighty micrograms of protein were resolved by SDS-PAGE and transferred to PVDF membranes. Membranes were incubated overnight with antibodies (1:1000). […] Pre-treatment biopsies were collected within two weeks of the first dose and post-treatment biopsies collected after at last three weeks of treatment. Extracts were prepared in 50 mM Tris-HCl, pH7.4, 150 mM NaCl, 1 mM EDTA, 1% NP40, 0.25% sodium deoxycholate and supplemented with mini-protease inhibitor cocktail (Roche). Tumor response was assessed by reference radiologist by CT scan every six weeks for 36 weeks, and every 12 weeks thereafter.

Assay [9] deals with catalase in WD/DDLS cell lines. As to the kind of experiment: catalase expression by immunoblot. In kind it is cell-based, human. Conditions: two senescing and two non-senescing cell lines. The source says:
FIG. 22. Additional immunoblot analysis in responder and non-responder cells. […] Actin is a loading control. This experiment was repeated at least three times for each cell line.

Assay [10] deals with cytokine secretion of LS8313 cells. As to the kind of experiment: human cytokine array (SASP). Conditions: 1 μM, seven days. In kind it is cell-based. As to the method:
(§4) FIG. 16. […] Human cytokine arrays were purchased from R&D Technologies (ARY006). […] The media was changed 24 hours prior to harvest. On the day of harvest, the media was collected, spun for 5 minutes at 1200 rpm and filtered through a […] syringe to remove debris. Cells were trypsinized and counted and media volume was adjusted so that an equal number of cells were represented from each sample. Cytokine arrays were performed according to manufacturer's protocol. Signal intensity was measured using ImageJ and a log2 value of the PD/CTRL ratio was calculated.

Assay [11] relates to cytokine secretion of LS8817 cells. As to the kind of experiment: human cytokine array (SASP). The class given is cell-based. To be noted: 1 μM, seven days. As to the method:
as §4

The test system of assay [12] is RB-positive WD/DDLS. To be noted: two patients with RB-positive WD/DDLS; cited from earlier work.

`CC(=O)c1c(C)c2cnc(Nc3ccc(N4CCNCC4)cn3)nc2n(C2CCCC2)c1=O` [PD0332991]: the “MDM2 levels in post- versus pre-treatment biopsies” value in assay [1] (patients 1, 4, 7, and 8) was “reduced”; in [1] (patients 2, 3, and 9) it was “unaffected”. Moreover, in [2], the MDM2 stability entry is “largely unaffected”. Besides, the PD-induced growth arrest entry in [3], in [4], in assay [5], in [6] and in assay [7] was “+ (BrdU incorporation is reduced at least 8X 7 days after treatment with the drug)” each time. The MDM2 reduction entry in assay [8] is “approximately three-fold”. Also, the catalase expression result in assay [9] is on record as “increased”. Moreover, the SASP cytokine secretion result in assay [10] is “only IL-6 secretion increased”. Besides, in assay [11], the “MIF-1 and PAI-1 secretion” value is given as “essentially unchanged”. The “secretion of GM-CSF, GROα/CXCL1, IL-6, IL-8 and MCP-1” value in assay [11] is listed as “upregulated”. In assay [12], the clinical response entry is “prolonged stable disease lasting several years”.

The values above are taken from US9889135B2, “Companion diagnostic for CDK4 inhibitors” (Memorial Sloan-Kettering Cancer Center, priority 2013, dated 2018).
